In US11840533B2, “Pyridinone-based epigenetic modifiers and uses thereof” (THE BOARD OF TRUSTEES OF THE UNIVERSITY OF ILLINOIS, priority 2017, dated 2023):

tested on: fulvestrant-resistant MCF7:5C-FR cells; experiment: Fulvestrant-resistant breast cancer cell viability (cell proliferation) assay; assay type: cell-based; details: 120 h, growth inhibition in fulvestrant-resistant MCF-7:CFR cells, 120 hrs
Protocol: For the cell proliferation assay, the fulvestrant-resistant MCF7:5C-FR cells were seeded at about 2000 to about 2500/well in 96-well plates. The next day, compounds were add to the cells at desired serial concentrations form 3 nM to 10 uM. A final 0.1% (v/v) DMSO was used as vehicle control and 1 uM JQ1 was used as positive. The cell were grown in the normal culture condition for 120 hrs. Then the Hoechst 33342 dye were add to each well at a final concentration of 5 μg/ml, and put back to the incubator at 37 C for 90 min. The plates were scanned immediately after the incubation with Celigo (Nexcelcom Biocesnse) for the fluorescence of the nuclear using DAPI channel, and the cell number was counted thought the analysis function of the Celigo software. The normalized cell number to the vehicle control was used to represent the cell proliferation. […] N.D.=Not determined.

`Cn1ccc2ccnc(O)c21` [Compound 1, 1-methyl-1H-pyrrolo[2,3-c]pyridin-7-ol] and `Cn1cc(C(=O)c2ccccc2)c2ccnc(O)c21` [Compound 5, (7-hydroxy-1-methyl-1H-pyrrolo[2,3-c]pyridin-3-yl)(phenyl)methanone] cannot be ordered by IC50: > 5000 nM for the first, > 5000 nM for the second.

First: Cn1cc(C(=O)c2cccc(-c3ccc(F)cc3)c2)c2ccnc(O)c21 [Compound 2, (4′-fluoro-[1,1′-biphenyl]-3-yl)(7-hydroxy-1-methyl-1H-pyrrolo[2,3-c]pyridin-3-yl)methanone]
Second: O=C(c1cccc(-c2ccc(F)cc2)c1)c1cn(CCCl)c2c(O)nccc12 [Compound 7, (1-(2-chloroethyl)-7-hydroxy-1H-pyrrolo[2,3-c]pyridin-3-yl)(4′-fluoro-[1,1′-biphenyl]-3-yl)methanone]
The IC50 of the first is 9.6-fold lower: 157 nM for the first, 1500 nM for the second.

`O=C(c1cccc(-c2ccc(F)cc2)c1)c1c[nH]c2c(O)nccc12` [Compound 3, (4′-fluoro-[1,1′-biphenyl]-3-yl)(7-hydroxy-1H-pyrrolo[2,3-c]pyridin-3-yl)methanone] and `Cn1cc(C(=O)c2ccc(-c3ccc(F)cc3)cc2)c2ccnc(O)c21` [Compound 4, (4′-fluoro-[1,1′-biphenyl]-4-yl)(7-hydroxy-1-methyl-1H-pyrrolo[2,3-c]pyridin-3-yl)methanone] cannot be ordered by IC50: > 1000 nM for the first, > 5000 nM for the second.

`Cn1cc(C(=O)c2ccccc2Cl)c2ccnc(O)c21` [Compound 6, (2-chlorophenyl)(7-hydroxy-1-methyl-1H-pyrrolo[2,3-c]pyridin-3-yl)methanone] and `CNS(=O)(=O)CCc1ccc(O)cc1C(=O)c1cn(C)c2c(O)nccc12` [Compound 12, 2-(4-hydroxy-2-(7-hydroxy-1-methyl-1H-pyrrolo[2,3-c]pyridine-3-carbonyl)phenyl)-N-methylethane-1-sulfonamide] cannot be ordered by IC50: > 5000 nM for the first, > 1000 nM for the second.

Compared with `Cn1cc(C(OCc2ccc(F)cc2)c2cccc(-c3ccc(F)cc3)c2)c2ccnc(O)c21` (stereo not drawn) [Compound 9, 3-((4′-fluoro-[1,1′-biphenyl]-3-yl)((4-fluorobenzyl)oxy)methyl)-1-methyl-1H-pyrrolo[2,3-c]pyridin-7-ol], `Cn1cc(C(Oc2ccc(F)cc2)c2cccc(-c3ccc(F)cc3)c2)c2ccnc(O)c21` (stereo not drawn) [Compound 10, 3-((4′-fluoro-[1,1′-biphenyl]-3-yl)(4-fluorophenoxy)methyl)-1-methyl-1H-pyrrolo[2,3-c]pyridin-7-ol] is lower in IC50: > 5000 nM for the first, 300 nM for the second.

`Cn1cc(C(OCC2CCC2)c2cccc(-c3ccc(F)cc3)c2)c2ccnc(O)c21` (stereo not drawn) [Compound 11, 3-((cyclobutylmethoxy)(4′-fluoro-[1,1′-biphenyl]-3-yl)methyl)-1-methyl-1H-pyrrolo[2,3-c]pyridin-7-ol] and `CNS(=O)(=O)CCc1ccc(OCC2CCC2)cc1C(=O)c1cn(C)c2c(O)nccc12` [Compound 14, 2-(4-(cyclobutylmethoxy)-2-(7-hydroxy-1-methyl-1H-pyrrolo[2,3-c]pyridine-3-carbonyl)phenyl)-N-methylethane-1-sulfonamide] cannot be ordered by IC50: > 5000 nM for the first, > 1000 nM for the second.

`CNS(=O)(=O)CCc1ccc(OCc2ccc(F)cc2)cc1C(=O)c1cn(C)c2c(O)nccc12` [Compound 13, 2-(4-((4-fluorobenzyl)oxy)-2-(7-hydroxy-1-methyl-1H-pyrrolo[2,3-c]pyridine-3-carbonyl)phenyl)-N-methylethane-1-sulfonamide] and `CNS(=O)(=O)CCc1ccc(OC)cc1C(=O)c1cn(C)c2c(O)nccc12` [Compound 15, 2-(2-(7-hydroxy-1-methyl-1H-pyrrolo[2,3-c]pyridine-3-carbonyl)-4-methoxyphenyl)-N-methylethane-1-sulfonamide] cannot be ordered by IC50: > 1000 nM for the first, > 1000 nM for the second.

same assay, conditions: growth inhibition in fulvestrant-resistant MCF-7:CFR cells, 120 hrs

For `O=C(c1cccc(-c2ccc(F)cc2)c1)c1cn(CCCCl)c2c(O)nccc12` [Compound 8, (1-(3-chloropropyl)-7-hydroxy-1H-pyrrolo[2,3-c]pyridin-3-yl)(4′-fluoro-[1,1′-biphenyl]-3-yl)methanone], the IC50 was > 5000 nM.
